Experimental data as given in patent US20140357512A1, “HISTONE DEACETYLASE (HDAC) BIOMARKERS IN MULTIPLE MYELOMA” (priority 2013, published 2014).

System: human myeloma cell line MM.1S
Assay: SILAC acetylated-lysine peptide profiling, HDAC inhibitor vs DMSO (light/heavy ratio)
Assay type: cell-based
Excerpt: An embodiment of the invention comprises utilizing the SILAC method in order to quantitate changes in protein expression between two or more populations of cells. The SILAC method is a technique based on mass spectrometry that detects differences in protein abundance among samples using non-radioactive isotopic labeling. The SILAC method is known in the art, and described in detail in Ong et al., “Stable Isotope Labeling by Amino Acids in Cell Culture, SILAC, as a Simple and Accurate Approach to Expression Proteomics”, Molecular & Cellular Proteomics, vol. 1, pp. 376-386 (2002), which is incorporated herein by reference in its entirety.
Briefly, the SILAC method involves growing two populations of cells in cell culture. The first population of cells is grown in growth media containing normal amino acids (“normal media”). The second population of cells is grown in media lacking a standard essential amino acid (such as lysine), but is then supplemented with a non-radioactive, isotopically labeled form of that essential amino acid (such as lysine labeled with ^13C atoms, rather than normal ^12C atoms), which is called “heavy media”. When the two populations of cells are each growing in the medium, they incorporate the amino acids into all of their proteins. The growth of cells maintained in the heavy media is no different from that in normal media. All peptides containing the heavy amino acids are heavier than their normal counterparts. The cells from each of the two populations of cells are lysed. The lysates from each of the two cell populations are then combined. The combined cell lysates are then analyzed by mass spectrometry. Pairs of chemically identical peptides of different stable isotope composition can be differentiated in a mass spectrometer due to their difference in mass. The ratio of peak intensities in the mass spectrum for such peptide pairs reflects the abundance ratio for the two proteins.
This example describes SILAC studies that were performed to compare the effects of three different HDAC inhibitors (Compound A, Compound B, and tubastatin A) to a control on a human multiple myeloma cell line. The HDAC inhibitors were also compared amongst themselves to determine differences in their effects.
A human myeloma cell line MM.1S was grown using either ^12C (light) or ^13C (heavy) lysine containing culture medium. The “heavy” cells were treated with DMSO as the control, and the “light” cells were treated with a single HDAC inhibitor at 37° C. for 6 hours. The heavy and light cells were lysed, and the lysates were mixed in 1:1 ratio and digested with the protease trypsin. The acetylated lysine containing peptides (due to the action of the HDAC inhibitor) in the digested peptide pool were captured by a non-specific anti-acetylated lysine antibody cocktail (the antibodies identify both light and heavy acetylated peptides), and subjected to mass spectrometry analysis in order to identify thousands of individual peptides.
Thousands of peptides were identified in pairs (^12C and ^13C) due to their known mass differences. The amino acid sequence and quantitative ratio (Light/Heavy) of a given peptide in two differentially treated cell lysates were then determined and annotated with their possible protein (gene) sources.
As stated above, three HDAC inhibitors (Compound A, Compound B, and Tubastatin A) were used. Thus, the SILAC method was performed three times, with a different HDAC inhibitor compared to a control each time. Accordingly, there are three pairs of quantitative data in the table below, i.e., Compound A:DMSO, Compound B:DMSO, and Tubastatin A:DMSO. A cut-off of 1.30 fold of change (increase or decrease) was then used to determine “changed” or “+” in the table, and any peptides with a fold of change less than 1.3 fold were determined to be “unchanged” or “0” in the table. Those peptides that were not identified were marked as “NA” in the table. […]

**Q.** `CN1CCc2c(c3ccccc3n2Cc2ccc(C(=O)NO)cc2)C1` [Tub A] was tested. Which “light to heavy ratio (L/H ratio) of acetylated peptide YFDEK(ac)IAK (SEQ ID NO: 563)” value (D-beta-hydroxybutyrate dehydrogenase mitochondrial [280], gene BDH1, inhibitor:DMSO) did it give?
**A.** 0.00 log 2

**Q.** What about the “light to heavy ratio (L/H ratio) of acetylated peptide, log 2 scale” value (from here on “light to heavy ratio (L/H ratio) … log 2 scale”) (DAAGSGDK(ac)PGADTGR (SEQ ID NO: 185), 39S ribosomal protein L53 mitochondrial [105], MRPL53) of the same molecule?
**A.** 0.38

**Q.** What about the “light to heavy ratio (L/H ratio) … log 2 scale” value (DAISGIGTDEK(ac)CLIEILASR (SEQ ID NO: 128), Annexin A6 [113], ANXA6) of the same molecule?
**A.** 0.67

**Q.** And the “L/H ratio of acetylated peptide FK(ac)DPNCVGTVLASR (SEQ ID NO: 30)” value (DAZAP1 [59], log 2 scale, drug vs DMSO)?
**A.** −0.51

**Q.** And the “light to heavy ratio (L/H ratio) … log 2 scale” value (DCDHADEQK(ac)CYSCGEFGHIQK (SEQ ID NO: 145), Isoform 1 of Cellular nucleic acid-binding protein [118], CNBP)?
**A.** −0.38

**Q.** And the “L/H ratio of acetylated peptide APTIVGK(ac)SSLNPILFR (SEQ ID NO: 31)” value (DDOST [189], log 2 scale, drug vs DMSO)?
**A.** −0.51

**Q.** And the “L/H ratio of acetylated peptide FGNPGEK(ac)LVK (SEQ ID NO: 34)” value (DDX5 [40], log 2 scale, drug vs DMSO)?
**A.** 0.45

**Q.** And the “L/H ratio of acetylated peptide DWVLNEFK(ac)HGK (SEQ ID NO: 33)” value (DDX5 [388], log 2 scale, drug vs DMSO)?
**A.** −0.41

**Q.** And the “L/H ratio of acetylated peptide FEK(ac)NFYVEHPEVAR (SEQ ID NO: 32)” value (DDX17 [132], log 2 scale, drug vs DMSO)?
**A.** −0.42

**Q.** And the “light to heavy ratio (L/H ratio) … log 2 scale” value (DELGDYLK(ac)PK (SEQ ID NO: 184), 39S ribosomal protein L46 mitochondrial [265], MRPL46)?
**A.** −0.96

**Q.** And the “L/H ratio of acetylated peptide” value (DHPLPEVAHVK(ac)HLSASQK (SEQ ID NO: 381), Cytochrome c oxidase subunit 4 isoform 1 mitochondrial [53], COX4I1)?
**A.** 0.00 log 2

**Q.** What about the “light to heavy ratio (L/H ratio) … log 2 scale” value (DK(ac)TQYIFNNMVLK (SEQ ID NO: 182), Alpha-mannosidase 2 [191], MAN2A1) of the same molecule?
**A.** −0.45

**Q.** And the “L/H ratio of acetylated peptide ELNK(ac)ILEGR (SEQ ID NO: 2)” value (DLAT [466], log 2 scale, drug vs DMSO)?
**A.** 0.45

**Q.** What about the “light to heavy ratio (L/H ratio) … log 2 scale” value (DLEK(ac)WQNNLLPSR (SEQ ID NO: 211), 40S ribosomal protein 515a [88], RPS15A) of the same molecule?
**A.** −0.46

**Q.** What about the “light to heavy ratio (L/H ratio) … log 2 scale” value (DLMTDLK(ac)SEISGDLAR (SEQ ID NO: 129), Annexin A6 [418], ANXA6) of the same molecule?
**A.** 0.42

**Q.** What about the “L/H ratio of acetylated peptide VVK(ac)HPIFER (SEQ ID NO: 35)” value (DNAJB11 [247], log 2 scale, drug vs DMSO) of the same molecule?
**A.** −0.91

**Q.** What about the “light to heavy ratio (L/H ratio) … log 2 scale” value (DSGNK(ac)PPGLLPR (SEQ ID NO: 160), Isoform 1 of Glutathione S-transferase kappa 1 [54], GSTK1) of the same molecule?
**A.** 0.47

**Q.** What about the “light to heavy ratio (L/H ratio) … log 2 scale” value (DVK(ac)FGADAR (SEQ ID NO: 173), 60 kDa heat shock protein mitochondrial [31], HSPD1) of the same molecule?
**A.** −0.66

**Q.** And the “L/H ratio of acetylated peptide SFDSEFK(ac)LACK (SEQ ID NO: 8)” value (DYNC1H1 [4283], log 2 scale, drug vs DMSO)?
**A.** 0.44

**Q.** And the “light to heavy ratio (L/H ratio) of acetylated peptide LNLDK(ac)MMEQK (SEQ ID NO: 603)” value (Dihydrolipoyl dehydrogenase mitochondrial [122], gene DLD, inhibitor:DMSO)?
**A.** 0.00 log 2

**Q.** And the “light to heavy ratio (L/H ratio) of acetylated peptide DTYIENEK(ac)LISGK (SEQ ID NO: 352)” value (Dolichyl-diphosphooligosaccharide--protein glycosyltransferase subunit 1 precursor [626], RPN1, drug:DMSO)?
**A.** 0.00 log 2

**Q.** What about the “light to heavy ratio (L/H ratio) of acetylated peptide YNIEK(ac)DIAAHIK (SEQ ID NO: 553)” value (Dynein light chain 1 cytoplasmic [36], gene DYNLL1, inhibitor:DMSO) of the same molecule?
**A.** 0.00 log 2

**Q.** And the “light to heavy ratio (L/H ratio) of acetylated peptide YNIEK(ac)DIAAYIK (SEQ ID NO: 331)” value (Dynein light chain 2 cytoplasmic [36], DYNLL2, drug:DMSO)?
**A.** 0.00 log 2

**Q.** And the “light to heavy ratio (L/H ratio) … log 2 scale” value (EAALEPSMEK(ac)IFK (SEQ ID NO: 157), cDNA FLJ59630 highly similar to Growth hormone-inducible transmembrane protein [76], GHITM)?
**A.** −0.68

**Q.** And the “light to heavy ratio (L/H ratio) … log 2 scale” value (EDQK(ac)PVMDDQR (SEQ ID NO: 141), Isoform 1 of HLA class I histocompatibility antigen gamma chain [14], CD74)?
**A.** −0.79

**Q.** And the “L/H ratio of acetylated peptide TSK(ac)NK(ac)SSLSR (SEQ ID NO: 14)” value (EP300 [1558:1560], log 2 scale, drug vs DMSO)?
**A.** 0.42

**Q.** What about the “light to heavy ratio (L/H ratio) … log 2 scale” value (EQEHMINWVEK(ac)HVVQSISTQQEK (SEQ ID NO: 132), ATP synthase subunit b mitochondrial [221], ATP5F1) of the same molecule?
**A.** 0.77

**Q.** And the “light to heavy ratio (L/H ratio) … log 2 scale” value (EVHK(ac)QVVESAYEVIK (SEQ ID NO: 181), Isoform 1 of L-lactate dehydrogenase A chain [232], LDHA)?
**A.** −0.67

**Q.** And the “light to heavy ratio (L/H ratio) … log 2 scale” value (EVQTNDLK(ac)EVVNK (SEQ ID NO: 223), 40S ribosomal protein S3a [182], SNORD73A, RPS3A)?
**A.** −0.60

**Q.** And the “light to heavy ratio (L/H ratio) of acetylated peptide TFK(ac)GVVDVVMK (SEQ ID NO: 550)” value (Elongation factor G 2 mitochondrial precursor [265], gene GFM2, inhibitor:DMSO)?
**A.** 0.00 log 2

**Q.** And the “light to heavy ratio (L/H ratio) of acetylated peptide KSDYIK(ac)LYVR (SEQ ID NO: 315)” value (Endoplasmin [410], HSP90B1, drug:DMSO)?
**A.** −0.70 log 2

**Q.** And the “light to heavy ratio (L/H ratio) of acetylated peptide EK(ac)NLLHVTDTGVGMTR (SEQ ID NO: 314)” value (Endoplasmin[ 142], HSP90B1, drug:DMSO)?
**A.** −0.84 log 2

**Q.** And the “light to heavy ratio (L/H ratio) of acetylated peptide EVEEDEYK(ac)AFYK (SEQ ID NO: 261)” value (Endoplasmin[ 356], HSP90B1, drug:DMSO)?
**A.** −0.89 log 2

**Q.** And the “light to heavy ratio (L/H ratio) of acetylated peptide K(ac)EELTLEGIR (SEQ ID NO: 510)” value (Eukaryotic initiation factor 4A-I [238], gene EIF4A1, inhibitor:DMSO)?
**A.** 0.00 log 2

**Q.** What about the “light to heavy ratio (L/H ratio) of acetylated peptide SHLAK(ac)EGLYQYK (SEQ ID NO: 533)” value (Eukaryotic translation initiation factor 3 subunit A [68], gene EIF3A, inhibitor:DMSO) of the same molecule?
**A.** 0.00 log 2

**Q.** What about the “light to heavy ratio (L/H ratio) … log 2 scale” value (FEK(ac)EQQQLNWK (SEQ ID NO: 179), Isoform Long of Integrin beta-7 [763], ITGB7) of the same molecule?
**A.** −0.47

**Q.** And the “light to heavy ratio (L/H ratio) … log 2 scale” value (FFTVK(ac)LPVALDPGAK (SEQ ID NO: 209), Dolichyl-diphosphooligosaccharide--protein glycosyltransferase subunit 1 precursor [155], RPN1)?
**A.** −0.39

**Q.** And the “L/H ratio of acetylated peptide” value (FGIAAK(ac)YQLDPTASISAK (SEQ ID NO: 479), Isoform 2 of Voltage-dependent anion-selective channel protein 2 [224], VDAC2)?
**A.** 0.00 log 2

**Q.** And the “light to heavy ratio (L/H ratio) … log 2 scale” value (FLNAENAQK(ac)FK (SEQ ID NO: 200), Ran-specific GTPase-activating protein [150], RANBP1)?
**A.** −0.68

**Q.** And the “light to heavy ratio (L/H ratio) … log 2 scale” value (FLTK(ac)GDNNAVDDR (SEQ ID NO: 218), Putative signal peptidase complex catalytic subunit SEC11B [101], SEC11B)?
**A.** 0.82

**Q.** And the “light to heavy ratio (L/H ratio) … log 2 scale” value (FNQK(ac)GEVYK (SEQ ID NO: 149), Lipoamide acyltransferase component of branched-chain alpha-keto acid dehydrogenase complex mitochondrial [435], DBT)?
**A.** 0.39

**Q.** And the “light to heavy ratio (L/H ratio) … log 2 scale” value (FWNK(ac)FLENK (SEQ ID NO: 187), NADH dehydrogenase [ubiquinone] 1 beta subcomplex subunit 6 [49], NDUFB6)?
**A.** 0.54

**Q.** And the “light to heavy ratio (L/H ratio) of acetylated peptide AVDLIQK(ac)HK (SEQ ID NO: 546)” value (Flap endonuclease 1 [252], gene FEN1, inhibitor:DMSO)?
**A.** 0.00 log 2

**Q.** And the “L/H ratio of acetylated peptide TCEESSFCK(ac)R (SEQ ID NO: 36)” value (GANAB [48], log 2 scale, drug vs DMSO)?
**A.** −0.51
